Measured values from publication PMC5983026, “Intraring allostery controls the function and assembly of a hetero-oligomeric class II chaperonin” (The FASEB Journal, 2018).

Experiments:
[1] = target: T1, Ta RhaD (rhamnose dehydrogenase) (Thermoplasma acidophilum, UniProt Q9HK58); assay: dehydrogenase activity, NADPH absorbance at […] nm; assay type: biochemical; settings: NADP+ co-substrate, 55 °C; read-out of refolding assay
T1 sequence (Q9HK58 1-254): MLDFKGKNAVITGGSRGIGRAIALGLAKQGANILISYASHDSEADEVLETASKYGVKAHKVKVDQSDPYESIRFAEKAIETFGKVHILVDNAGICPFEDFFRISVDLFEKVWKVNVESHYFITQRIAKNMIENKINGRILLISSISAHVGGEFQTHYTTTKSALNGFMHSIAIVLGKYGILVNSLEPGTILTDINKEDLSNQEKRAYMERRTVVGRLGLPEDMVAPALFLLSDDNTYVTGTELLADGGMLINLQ

[2] = target: the molecule itself; assay: SEC + native gel or EMSA; α (intraloop His6) and β co-expressed in E. coli; complexes purified to homogeneity as in ref. 29; integrity by Superose 6 Increase SEC (main peak ≅950 kDa) and native-PAGE 3–12% (≅1 MDa); subunit composition by Tris-Acetate SDS-PAGE (7%) of the purified proteins

C[C@@H]1OC(O)[C@H](O)[C@H](O)[C@H]1O (stereo partly drawn) [L-rhamnose]
dehydrogenase activity, NADPH absorbance at 340 nm [1]: RhaD catalyzes the NADP^+-dependent oxidation of L-rhamnose

B1: Thermoplasma acidophilum thermosome α subunit D94E, with intraloop His6-tag (natural protein)
chain: MMTGQVPILVLKEGTQREQGKNAQRNNIEAAKAIADAVRTTLGPKGMDKMLVDSIGDIIISNDGATILKEMDVEHPTAKMIVEVSKAQDTAVGEGTTTAVVLSGELLKQAETLLDQGVHPTVISNGYRLAVNEARKIIDEIAEKSTDDATLRKIALTALSGKNTGLSNDFLADLVVKAVNAVAEVRDGKTIVDTANIKVDKKNGGSVNDTQFISGIVIDKEKVHSKMPDVVKNAKIALIDSALEIKKTEIEAKVQISDPSKIQDFLNQETNTFKQMVEKIKKSGANVVLCQKGIDDVAQHYLAKEGIYAVRRVKKSDMEKLAKATGAKIVTDLDDLTPSVLGEAETVEERKIGDDRMTFVMGCKNPKAVSILIRGGTDHVVSEVERALNDAIRVVAITKEDGKFLWGGGAVEAELAMRLAKYANSVGGREQLAIEAFAKALEIIPRTLAENAGIDPINTLIKLKAEHEKGRISVGVDLDNNGVGDMKAKGVVDPLRVKTHALESAVEVATMILRIDDVIASKKSTPPSGQGGQGQGMPGGGMPEY
notes: Thermoplasma acidophilum thermosome α subunit, NCBI CAC12109; site-directed mutant of construct aK144HTTherm; also called Asp94α to a glutamate residue; not shown: His6, internal (intraloop), kept
stoichiometry N [2]: 16
